# Experimental data taken from patent US12441725B2, “ISO-citrate dehydrogenase (IDH) inhibitor” (ZHEJIANG METON PHARMACEUTICAL CO., LTD, priority 2019, dated 2025).
# What was measured:
# [1] = biological target: T1, IDH (endogenous IDH1 R132C) in HT1080 cell (Homo sapiens, UniProt O75874, R132C); test: Cell-based assay for IDH inhibition (decrease of D-2-HG) in HT1080 cells; conditions: human fibrosarcoma cell line HT1080, 16 hours treatment, D-2-HG by LC-MS, in triplet
# T1 construct: which harbor endogenous heterozygous IDH1 R132C and R132H mutation respectively and accumulate D-2-HG
# Source text: The present disclosure also provides a cell-based method for assaying IDH inhibition and selectivity of the compounds in human fibrosarcoma cell line HT1080 and cholangiocarcinoma cell line HCCC 9810, which harbor endogenous heterozygous IDH1 R132C and R132H mutation respectively and accumulate D-2-HG. Tumor -derived IDH mutant lost its normal activity of producing α-KG, and gained a new activity of producing D-2-HG. D-2-HG is a metabolite specifically elevated in tumor cells expressing mutant IDH1 or IDH2 proteins. When treating such mutant IDH-expressing tumor cells with an effective IDH inhibitor, the synthesis of D-2-HG is blocked, and D-2-HG concentration is decreased by the oxidation reaction catalyzed by the endogenous D-2-HG dehydrogenase.
# To perform a cell-based IDH inhibition assay, HT1080 and HCCC 9810 cells (or other cell lines harboring different IDH mutations) are cultured in DMEM supplemented with 10% FBS. The cells are treated with compounds of present disclosure at various different concentrations. 16 hours after the treatment, culture medium supernatants are removed and cell metabolites are extracted by 40% methanol and 40% acetonitrile in water (pre-chilled under −80° C.) at 4° C. for 1 hour. The extract supernatants are collected and cell debris are removed via high speed centrifugation. The resulting metabolite extracts are analyzed on an Agilent LC-MS system (model: 1290-6470) for 2-HG and glutamate concentration. A HILIC-Z column (2.1 mm×100 mm, […]) is employed on HPLC. Mobile phase A is 15 mM CH3COONH4 and 0.3% NH3·H2O in water. Mobile phase B is 15 mM CH3COONH4 and 0.3% NH3·H2O in 90% MeCN/10% H2O solvent. An 19% solvent A and 81% solvent B isocratic gradient method is used at a flow rate of 0.3 ml/min. D-2-HG is ionized under negative ion spray mode and detected through the multiple-reaction monitoring of a mass transition pair at m/z=147.0/128.9 and 147.0/85.1. Glutamate is ionized under ion spray mode and detected on negative polarity multiple-reaction monitoring of a mass transition pair at m/z=146/102 and 146/128 and its level is used to normalize 2-HG concentration. The activity of cellular mutant IDH proteins in the presence of each test compound at different concentrations can be represented by relative D-2-HG concentration to negative control samples (i.e., cells are treated with DMSO only), and the IC50 value could be determined to evaluate the inhibition and selectivity of each test compound on the IDH enzymatic activity.
# The IDH inhibition activity of the compounds were assessed in human fibrosarcoma cell line HIT1080 according to Test 3 of the Biological Assay section. The test for IDH inhibition of each compound was carried out in triplet. As used in Table 6, “A” refers to an IDH inhibitory activity with an IC50<0.1 μM; “B” refers to an IDH inhibitory activity with an IC50 from 0.1 μM to 0.5 μM; “C” refers to an IDH inhibitory activity with an IC50 from 0.5 μM to 1 μM; “D” refers to an IDH inhibitory activity with an IC50>1 μM.
# IDH1 R132H = biological target: T2, IDH1 R132H (Homo sapiens, UniProt O75874, R132H); test: Biochemical assay for IDH inhibition (NADPH fluorescence), mutant IDH1 R132H; conditions: 50 nM IDH1-R132H, 1 hour pre-incubation, in triplet
# T2 construct: 6xHis
# Source text: (§1) The present disclosure provides a biochemical assay method for detecting the IDH inhibition and selectivity of the compounds by detecting IDH enzyme activity directly.
# (§2) Wild-type IDH enzymes convert NADP^+ to NADPH when catalyzing the α-KG producing reaction. Mutant IDH enzymes convert NADPH to NADP^+ when catalyzing the D-2-HG producing reaction. So, the activity of wild-type and mutant IDH1/2 could be measured by monitoring NADPH level change as NADPH is fluorescent (Excitation 340 nm, Emission 460 nm). By monitoring the change of NADPH level in the reaction, the enzyme activity could be determined rapidly and efficiently and IC50 of a compound could also be assayed.
# (§3) The test compounds are prepared into 50 mM stock solutions in DMSO and stored at −20° C. Each test compound stock is further diluted to obtain a 100× stock solution at a concentration of 400 μM, 200 μM, 100 μM, 50 μM, 25 μM, 12.5 μM, 6.25 μM and 3.125 μM, respectively, for the final use on the day of test (the concentration range of 100× stock solutions might be adjusted to cover the estimated IC50 of a specific test compound).
# (§4) Inhibition of Mutant IDH1 (R132H or R132C):
# (§5) To assay the enzymatic activity of mutant IDH1 proteins, 25 nM IDH1-R132C or 50 nM IDH1-R132H protein solutions are prepared in 20 mM Tris-HCl pH7.5, 150 mM NaCl, 10 mM MgCl2, 1 mM DTT, 0.05 mg/ml BSA and 1.33 mM α-KG. 148 μL 25 nM IDH1-R132C or 50 nM IDH1-R132H protein solutions are mixed with 2 μL DMSO (vehicle control for test compounds) or an above-mentioned 100× stock solution of a test compound and incubated for 1 hour at room temperature. Extra reactions containing 148 μL no-enzyme solution (20 mM Tris-HCl pH7.5, 150 mM NaCl, 10 mM MgCl2, 1 mM DTT, 0.05 mg/ml BSA and 1.33 mM α-KG) and 2 μL DMSO are also set up as background controls. Then each reaction is initiated by adding 50 μL 80 μM NADPH solution prepared in 20 mM Tris-HCl pH7.5, 150 mM NaCl, 10 mM MgCl2, 1 mM DTT and 0.05 mg/ml BSA. BioTek Synergy H1 Microplate reader (BioTek Instruments Inc., Winooski, U.S.) is employed to monitor the NADPH fluorescence (Excitation 340 nm, Emission 460 nm) every 42 seconds for 15 minutes. NADPH change rate is determined according to the linear phase of the fluorescence-time curve and results from the background control reactions are used as background subtraction to calculate the net NADPH change rates of other reactions. The net NADPH change rates from the vehicle control reactions are used as 100% enzymatic activity and thus the relative enzymatic activity of reactions with test compounds added could be determined. Then a dose-response curve is drawn for each test compound and the corresponding IC50 is calculated. The IC50 value is used to evaluate the inhibition and selectivity of each test compound on the IDH enzymatic activity.
# (§6) The IDH inhibition activity of the compounds were assessed according to Test 2 of the Biological Assay section. The test for mutant IDH1 R132H and IDH1 R132C inhibition of each compound was carried out in triplet. As used in Table 5, “A” refers to an inhibitory activity against IDH1 R132H or IDH1 R132C with an IC50<0.1 μM; “B” refers to an inhibitory activity against IDH1 R132H or IDH1 R132C with an IC50 from 0.1 μM to 0.5 μM; “C” refers to an inhibitory activity against IDH1 R132H or IDH1 R132C with an IC50 from 0.5 μM to 1 μM; “D” refers to an inhibitory activity against IDH1 R132H or IDH1 R132C with an IC50>1 μM.
# IDH1 R132C = biological target: T3, IDH1 R132C (Homo sapiens, UniProt O75874, R132C); test: Biochemical assay for IDH inhibition (NADPH fluorescence), mutant IDH1 R132C; conditions: 25 nM IDH1-R132C, 1 hour pre-incubation, in triplet
# T3 construct: 6xHis
# Source text: as §1, §2, §3, §4, §5, §6
# T3 sequence (O75874 whole entry R132C): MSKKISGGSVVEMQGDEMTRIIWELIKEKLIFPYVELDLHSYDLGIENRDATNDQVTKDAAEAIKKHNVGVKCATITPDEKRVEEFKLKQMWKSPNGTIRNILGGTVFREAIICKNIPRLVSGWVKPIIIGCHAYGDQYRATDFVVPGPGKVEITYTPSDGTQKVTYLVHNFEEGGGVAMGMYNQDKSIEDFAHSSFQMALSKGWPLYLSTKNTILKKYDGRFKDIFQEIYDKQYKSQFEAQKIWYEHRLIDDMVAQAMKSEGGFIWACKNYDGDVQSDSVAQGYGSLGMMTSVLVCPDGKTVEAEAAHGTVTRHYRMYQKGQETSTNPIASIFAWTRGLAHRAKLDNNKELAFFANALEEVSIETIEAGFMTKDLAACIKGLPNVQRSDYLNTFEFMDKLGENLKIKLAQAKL
# T1 sequence (O75874 2-414 R132C): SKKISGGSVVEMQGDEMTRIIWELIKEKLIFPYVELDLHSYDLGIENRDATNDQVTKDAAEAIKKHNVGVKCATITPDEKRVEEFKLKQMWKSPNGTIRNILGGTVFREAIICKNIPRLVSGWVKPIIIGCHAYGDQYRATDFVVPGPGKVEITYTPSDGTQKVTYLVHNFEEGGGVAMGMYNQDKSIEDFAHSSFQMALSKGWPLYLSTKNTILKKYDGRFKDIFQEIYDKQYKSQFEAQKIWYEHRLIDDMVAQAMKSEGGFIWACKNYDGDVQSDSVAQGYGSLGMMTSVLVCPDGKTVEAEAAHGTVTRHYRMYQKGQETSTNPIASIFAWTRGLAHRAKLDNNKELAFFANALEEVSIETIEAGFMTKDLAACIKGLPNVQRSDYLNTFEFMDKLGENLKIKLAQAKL
# T2 sequence (O75874 whole entry R132H): as the sequence (O75874 whole entry R132C) above, with C132H counted along it
IC50 [1] [nM],IC50 (IDH1 R132H) [nM],IC50 (IDH1 R132C) [nM],SMILES
> 1000,100 to 500,> 1000,"CCN1Cc2c(ccnc2N[C@@H](C)c2ccc(-c3ccnc(C(C)(C)C#N)c3)c(F)c2)C1=O [Compound 84, (S)-2-(4-(4-(1-((2-ethyl-1-oxo-2,3-dihydro-1H-pyrrolo[3,4-c]pyridin-4-yl)amino)ethyl)-2-fluorophenyl)pyridin-2-yl)-2-methylpropanenitrile]"
> 1000,> 1000,> 1000,"CCN1Cc2c(ccnc2N[C@@H](C)c2ccc(-c3ccnc4ccccc34)c(F)c2)C1=O [Compound 70, (S)-2-ethyl-4-((1-(3-fluoro-4-(quinolin-4-yl)phenyl)ethyl)amino)-2,3-dihydro-1H-pyrrolo[3,4-c]pyridin-1-one]"
< 100,< 100,< 100,"CCN1Cc2c(ccnc2N[C@@H](C)c2cc(F)c(-c3nc(C(C)(C)C)ccc3OC)cc2F)C1=O [Compound 117, (S)-4-((1-(4-(6-(tert-butyl)-3-methoxypyridin-2-yl)-2,5-difluorophenyl)ethyl)amino)-2-ethyl-2,3-dihydro-1H-pyrrolo[3,4-c]pyridin-1-one]"
100 to 500,> 1000,> 1000,"CCN1Cc2c(N[C@@H](C)c3ccc(-c4ccc(F)c(C)c4)c(F)c3)ncnc2C1=O [Compound 67, (S)-4-((1-(2,4′-difluoro-3′-methyl-[1,1′-biphenyl]-4-yl)ethyl)amino)-6-ethyl-5H-pyrrolo[3,4-d]pyrimidin-7(6H)-one]"
< 100,< 100,< 100,"CCN1Cc2c(ccnc2N[C@@H](C)c2cc(F)c(-c3cc(C(C)(C)F)c(F)cn3)cc2F)C1=O [Compound 137, (S)-4-((1-(2,5-difluoro-4-(5-fluoro-4-(2-fluoropropan-2-yl)pyridin-2-yl)phenyl)ethyl)amino)-2-ethyl-2,3-dihydro-1H-pyrrolo[3,4-c]pyridin-1-one]"

# The remaining lines, values behind:
SMILES,IC50 [1] [nM],IC50 (IDH1 R132H) [nM],IC50 (IDH1 R132C) [nM]
"CCN1Cc2c(ccnc2N[C@@H](C)c2ccc(Oc3ccc4c(c3)cc(C)n4C)c(F)c2)C1=O [Compound 11, (S)-4-((1-(4-((1,2-dimethyl-1H-indol-5-yl)oxy)-3-fluorophenyl)ethyl)amino)-2-ethyl-2,3-dihydro-1H-pyrrolo[3,4-c]pyridin-1-one]",> 1000,100 to 500,100 to 500
"CCN1Cc2c(ccnc2N[C@@H](C)c2ccc(Oc3ccc(C(C)(C)C)nc3)c(F)c2)C1=O [Compound 7, (S)-4-((1-(4-((6-(tert-butyl)pyridin-3-yl)oxy)-3-fluorophenyl)ethyl)amino)-2-ethyl-2,3-dihydro-1H-pyrrolo[3,4-c]pyridin-1-one]",500 to 1000,100 to 500,> 1000
"CCN1Cc2c(ccnc2N[C@@H](C)c2ccc(Oc3cnn(C)c3)c(F)c2)C1=O [Compound 4, (S)-2-ethyl-4-((1-(3-fluoro-4-((1-methyl-1H-pyrazol-4-yl)oxy)phenyl)ethyl)amino)-2,3-dihydro-1H-pyrrolo[3,4-c]pyridin-1-one]",> 1000,> 1000,> 1000
"CCN1Cc2c(ccnc2N[C@@H](C)c2ncc(-c3ccc(F)c(C)c3)cn2)C1=O [Compound 48, (S)-2-ethyl-4-((1-(5-(4-fluoro-3-methylphenyl)pyrimidin-2-yl)ethyl)amino)-2,3-dihydro-1H-pyrrolo[3,4-c]pyridin-1-one]",> 1000,> 1000,> 1000
"CCN1Cc2c(ccnc2N[C@@H](C)c2cc(F)c(-c3cc(OC(C)(C)C)c(Cl)cn3)cc2F)C1=O [Compound 152, (S)-4-((1-(4-(4-(tert-butoxy)-5-chloropyridin-2-yl)-2,5-difluorophenyl)ethyl)amino)-2-ethyl-2,3-dihydro-1H-pyrrolo[3,4-c]pyridin-1-one]",< 100,< 100,< 100
"CCN1Cc2c(ccnc2N[C@@H](C)c2ccc(C(=O)c3cccnc3)c(F)c2)C1=O [Compound 61, (S)-2-ethyl-4-((1-(3-fluoro-4-nicotinoylphenyl)ethyl)amino)-2,3-dihydro-1H-pyrrolo[3,4-c]pyridin-1-one]",> 1000,> 1000,> 1000
"CCN1Cc2c(ccnc2N[C@@H](C)c2ccc(OC3CCCC3)c(F)c2)C1=O [Compound 15, (S)-4-((1-(4-(cyclopentyloxy)-3-fluorophenyl)ethyl)amino)-2-ethyl-2,3-dihydro-1H-pyrrolo[3,4-c]pyridin-1-one]",> 1000,100 to 500,500 to 1000
"CCN1Cc2c(ccnc2N[C@@H](C)c2ccc(Cc3ccccc3)c(F)c2)C1=O [Compound 52, (S)-4-((1-(4-benzyl-3-fluorophenyl)ethyl)amino)-2-ethyl-2,3-dihydro-1H-pyrrolo[3,4-c]pyridin-1-one]",> 1000,100 to 500,100 to 500
